One assay concerns CD40 on RAW 264.7 cells. The assay is described as follows: Surface biomarker expression (CD40) in immune cells on micropillar/microwell chip. The format is cell-based, mouse. Conditions: 3D alginate/Matrigel, glycopolymers at 1250 μg/mL, LPS at 10 μg/mL, 48 hours, vs growth medium control (FIG. 15A). The method, then:
(§1) FIGS. 8, 14, and 15 are discussed in Example 5.
(§2) The micropillars of a 384-pillar micropillar chip were coated with 0.01% PMA-OD. Then 16.6 mM BaCl2/0.0033% PLL were printed onto the micropillars using a […].
(§3) An immune-cell suspension was prepared using 0.75% alginate and 0.5 mg/mL Matrigel and then printed onto the coated micropillars.
(§4) Growth media was then printed into the microwells on a microwell chip using a […].
(§5) The micropillar chip was then sandwiched with the microwell chip for 30 minutes and incubated for 24 hours with fresh growth media.
(§6) Next, various glycopolymers at 1250 μg/mL (polyacrylamide, N-glucosyl polymer, N-mannosyl polymer, N-lactosyl polymer, N-α2,3-sialolactosyl polymer, and N-α2,6-sialolactosyl polymer) and LPS at 10 μg/mL [701] were printed into the microwells.
(§7) The micropillar chip was then sandwiched with the microwell plate containing glycopolymers and LPS [701] for 48 hours. The micropillar chip was then rinsed with TBS [801] for 10 minutes, then incubated with ice-cold methanol and acetone (1:1 ratio) for 10 minutes at room temperature. The micropillar chip was then rinsed with TBS twice for 5 minutes and incubated with blocking buffer (SuperBlock) for 1 hour at room temperature. […]

The subject of another assay is CD80 on RAW 264.7 cells. As to the kind of experiment: Surface biomarker expression (CD80) in immune cells on micropillar/microwell chip. It counts as cell-based, mouse. Conditions: 3D alginate/Matrigel, glycopolymers at 1250 μg/mL, LPS at 10 μg/mL, 48 hours, vs growth medium control (FIG. 15B). The method, then: as §1, §2, §3, §4, §5, §6, §7
Assay [1] has as its system TNF-α production by RAW 264.7 cells. The assay is described as follows: Cytokine secretion (TNF-α) by immune cells on micropillar/microwell chip, 32-plex mouse cytokine array. It counts as cell-based. The following applies: glycopolymers at 1250 μg/mL, LPS at 10 μg/mL, 24 hours, cell supernatant (FIG. 16A). The method, then: (§8) FIGS. 9 and 16A-D are discussed in this example.
(§9) The micropillars on a micropillar chip were coated with 0.01% PMA-OD. Then 16.6 mM BaCl2/0.0033% PLL was printed on the micropillars using a microarray spotter.
(§10) An immune-cell suspension was prepared using RAW 264.7 cells, 0.75% alginate and 0.5 mg/mL Matrigel and then printed onto the coated micropillars. 60 nL spots of the immune-cell suspension were printed onto a micropillar chip with dried PLL-BaCl2 at a density of 3×10^6 cells/mL. After 2 minutes of alginate gelation and 24-hour incubation with a microwell chip containing 950 nL of cell growth media, the micropillar chip containing immune cells was sandwiched with a new microwell chip containing 950 nL of glycopolymers (polyacrylamide, N-glucosyl polymer, N-galactosyl polymer, N-mannosyl polymer, N-GlcNAc polymer, N-lactosyl polymer, N-α2,3 sialolactosyl polymer, and Nα2,6-sialolactosyl polymer) at 1250 μg/mL and LPS at 10 μg/mL, and incubated at 37° C. and 5% CO2 for 24 hours.
(§11) Separately, immune cells were cultured in 96-well plates in growth media and 10 μg/mL LPS for 24 hours as negative and positive controls for 2D monolayer culture.
(§12) The cell supernatants for all conditions were collected from the microwell chip and the 96-well plate, centrifuged, and analyzed for 32-plex mouse cytokine array measurements. […]

In assay [2] the test system is IL-6 production by RAW 264.7 cells. As to the kind of experiment: Cytokine secretion (IL-6) by immune cells on micropillar/microwell chip, 32-plex mouse cytokine array. The format is cell-based. Conditions: glycopolymers at 1250 μg/mL, LPS at 10 μg/mL, 24 hours, cell supernatant (FIG. 16B). The method, then:
as §8, §9, §10, §11, §12

Assay [3] relates to IL-10 production by RAW 264.7 cells. As to the kind of experiment: Cytokine secretion (IL-10) by immune cells on micropillar/microwell chip, 32-plex mouse cytokine array. It counts as cell-based. The following applies: glycopolymers at 1250 μg/mL, LPS at 10 μg/mL, 24 hours, cell supernatant (FIG. 16D). How it is done:
as §8, §9, §10, §11, §12

In assay [4] the test system is Class II MHC on RAW 264.7 cells. As to the kind of experiment: Surface biomarker expression (class II MHC) in immune cells on micropillar/microwell chip. Conditions: 3D alginate/Matrigel, glycopolymers at 1250 μg/mL, LPS at 10 μg/mL, 48 hours, vs growth medium control (FIG. 15D). It counts as cell-based, mouse. The method, then:
as §1, §2, §3, §4, §5, §6, §7

The text below walks through data of patent publication US11262349B2, “Multiplexed immune cell assays on a micropillar/microwell chip platform” (Cleveland State University, priority 2017, dated 2022).

lipopolysaccharide [LPS]: the “expression level of CD40 marker” value with CD40 on RAW 264.7 cells is reported as “significantly enhanced”. The “expression level of CD80 marker” value in the assay on CD80 on RAW 264.7 cells is on record as “enhanced”. For the same substance, the TNF-α production entry in assay [1] is listed as “significantly stimulated”. Besides, the IL-6 production entry in assay [2] is reported as “significantly stimulated”. Moreover, in assay [3], the IL-10 production entry is on record as “significantly stimulated”. For the same substance, the “expression level of class II MHC marker” value in assay [4] is listed as “significantly enhanced”.
